Measured values reported in patent publication US8916702B2 (priority 2012, dated 2014).

Tested on: HCV pseudoparticles (genotype 1a HCV E1 and E2 envelope, H77C isolate)
Assay: microbe, parasite or virus in culture
Format: cell-based
Conditions: Hepatitis C virus, Huh-7, 48 h, HCV pseudoparticle infection of Huh7 cells, luciferase 2 days after infection; average of duplicates

**Q.** How did the EC50 turn out when `O=C(NCC[C@H](NC(=O)c1ccc(Nc2nc(NC3(c4ccc(Cl)cc4)CC3)nc(OCC(F)(F)F)n2)cc1)C(=O)O)C(=O)Nc1cccc(-c2ccccc2)c1` [Compound 1523] was run?
**A.** 0.26 nM

**Q.** `COC(=O)[C@H](CCNC(=O)C(=O)Nc1ccc(-c2ccc(-c3ccccc3)cc2)cc1)NC(=O)c1ccc(Nc2nc(NC3(c4ccc(Cl)cc4)CC3)nc(OCC(F)(F)F)n2)cc1` [Compound 1527] was tested. Which EC50 did it give?
**A.** 0.15 nM

**Q.** Which EC50 does the source give for `COC(=O)[C@H](CNC(=O)C(=O)NCCc1cccnc1)NC(=O)c1ccc(Nc2nc(NC3(c4ccc(Cl)cc4)CC3)nc(OCC(F)(F)F)n2)cc1` [Compound 1293] here?
**A.** 4.4 nM

**Q.** Which EC50 does the source give for `COC(=O)[C@H](CNC(=O)C(=O)N(C)C)NC(=O)c1ccc(Nc2nc(NC3(c4ccc(Cl)cc4)CC3)nc(OCC(F)(F)F)n2)cc1` [Compound 1004, (S)-methyl 2-(4-(4-(1-(4-chlorophenyl)cyclopropylamino)-6-(2,2,2-trifluoroethoxy)-1,3,5-triazin-2-ylamino)benzamido)-3-(2-(dimethylamino)-2-oxoacetamido)propanoate] here?
**A.** 4.74 nM

Same assay, conditions: Hepatitis C virus, Huh-7, 48 h, HCV pseudoparticles, Huh7 cells, luciferase 2 days after infection; average of duplicates

**Q.** Which EC50 does the source give for `COc1ccc(NC(=O)C(=O)NCC(C)(C)CNC(=O)c2ccc(Nc3nc(NC4(c5ccc(Cl)cc5)CC4)nc(OCc4ccc(C(C)C)cc4)n3)cc2F)cc1` [Compound 3828] here?
**A.** 0.35 nM

**Q.** With `COC(=O)[C@H](CNC(=O)C(=O)Nc1cccc(CN2CCCC2)c1)NC(=O)c1ccc(Nc2nc(NC3(c4ccc(Cl)cc4)CC3)nc(OCC(F)(F)F)n2)cc1` [Compound 3723] as the compound, how does the EC50 read?
**A.** 1.34 nM

Same assay, conditions: Hepatitis C virus, Huh-7, 48 h, read-out: Activity (EC50 class), HCV pseudoparticle infection of Huh7 cells, luciferase 2 days after infection; EC50 expressed as class A/B

**Q.** Which EC50 does the source give for `COC(=O)[C@H](CCNC(=O)C(=O)NNc1ccccc1)NC(=O)c1ccc(Nc2nc(NC3(c4ccc(Cl)cc4)CC3)nc(OCC(F)(F)F)n2)cc1` [Compound 1220] here?
**A.** 0.01 to 10 nM

**Q.** For `O=C(NCC[C@H](NC(=O)c1ccc(Nc2nc(NC3(c4ccc(Cl)cc4)CC3)nc(OCC(F)(F)F)n2)cc1)C(=O)O)C(=O)Nc1cccc(-c2ccccc2)c1` [Compound 1523], which EC50 is on record?
**A.** 0.01 to 10 nM

**Q.** Which EC50 does the source give for `O=C(NCC[C@H](NC(=O)c1ccc(Nc2nc(NC3(c4ccc(Cl)cc4)CC3)nc(OCC(F)(F)F)n2)cc1)C(=O)O)C(=O)Nc1ccccc1F` [Compound 1273] here?
**A.** 0.01 to 10 nM

**Q.** How did the EC50 turn out when `COC(=O)[C@H](CCNC(=O)C(=O)Nc1cc(F)ccc1F)NC(=O)c1ccc(Nc2nc(NC3(c4ccc(Cl)cc4)CC3)nc(OCC(F)(F)F)n2)cc1` [Compound 1503] was run?
**A.** 0.01 to 10 nM

**Q.** With `CC(C)(CNC(=O)C(=O)Nc1ccc(Cl)cc1)CNC(=O)c1ccc(Nc2nc(NC3(c4ccc(Cl)cc4)CC3)nc(OCC(F)(F)F)n2)cc1` [Compound 1559] as the compound, how does the EC50 read?
**A.** 0.01 to 10 nM

**Q.** How did the EC50 turn out when `CC(C)(C)OC(=O)NC1(CNC(=O)C(=O)NCC[C@H](NC(=O)c2ccc(Nc3nc(NC4(c5ccc(Cl)cc5)CC4)nc(OCC(F)(F)F)n3)cc2)C(=O)O)CC1` [Compound 1425] was run?
**A.** 0.01 to 10 nM

**Q.** Which EC50 does the source give for `CC(C)(C)OC(=O)N1CCCC(CNC(=O)C(=O)NCC[C@H](NC(=O)c2ccc(Nc3nc(NC4(c5ccc(Cl)cc5)CC4)nc(OCC(F)(F)F)n3)cc2)C(=O)O)C1` (some centres unmarked) [Compound 1204] here?
**A.** 0.01 to 10 nM

**Q.** How did the EC50 turn out when `O=C(NCC[C@H](NC(=O)c1ccc(Nc2nc(NC3(c4ccc(Cl)cc4)CC3)nc(OCC(F)(F)F)n2)cc1)C(=O)O)C(=O)Nc1ccccc1` [Compound 1433] was run?
**A.** 0.01 to 10 nM

**Q.** Which EC50 does the source give for `COC(=O)[C@H](CCNC(=O)C(=O)NC1CCCC(O)C1)NC(=O)c1ccc(Nc2nc(NC3(c4ccc(Cl)cc4)CC3)nc(OCC(F)(F)F)n2)cc1` (some centres unmarked) [Compound 1070] here?
**A.** 0.01 to 10 nM

**Q.** Which EC50 does the source give for `COC(=O)[C@H](CCNC(=O)C(=O)Nc1ccc(-c2ccc(-c3ccccc3)cc2)cc1)NC(=O)c1ccc(Nc2nc(NC3(c4ccc(Cl)cc4)CC3)nc(OCC(F)(F)F)n2)cc1` [Compound 1527] here?
**A.** 0.01 to 10 nM

**Q.** For `COC(=O)[C@H](CNC(=O)C(=O)NCCc1cccnc1)NC(=O)c1ccc(Nc2nc(NC3(c4ccc(Cl)cc4)CC3)nc(OCC(F)(F)F)n2)cc1` [Compound 1293], which EC50 is on record?
**A.** 0.01 to 10 nM

**Q.** How did the EC50 turn out when `COC(=O)[C@H](CNC(=O)C(=O)N(C)C)NC(=O)c1ccc(Nc2nc(NC3(c4ccc(Cl)cc4)CC3)nc(OCC(F)(F)F)n2)cc1` [Compound 1004, (S)-methyl 2-(4-(4-(1-(4-chlorophenyl)cyclopropylamino)-6-(2,2,2-trifluoroethoxy)-1,3,5-triazin-2-ylamino)benzamido)-3-(2-(dimethylamino)-2-oxoacetamido)propanoate] was run?
**A.** 0.01 to 10 nM

**Q.** Which EC50 does the source give for `COc1ccccc1NC(=O)C(=O)NCC[C@H](NC(=O)c1ccc(Nc2nc(NC3(c4ccc(Cl)cc4)CC3)nc(OCC(F)(F)F)n2)cc1)C(=O)O` [Compound 1276] here?
**A.** 0.01 to 10 nM

**Q.** Which EC50 does the source give for `CCC1(CC)CC1CNC(=O)C(=O)NC[C@H](NC(=O)c1ccc(Nc2nc(NC3(c4ccc(Cl)cc4)CC3)nc(OCC(F)(F)F)n2)cc1)C(=O)O` (some centres unmarked) [Compound 1471] here?
**A.** 0.01 to 10 nM

Same assay, conditions: Hepatitis C virus, Huh-7, 48 h, read-out: Activity (EC50 class), HCV pseudoparticles, Huh7 cells, luciferase 2 days after infection; average of duplicates

**Q.** With `COC(=O)[C@H](CNC(=O)C(=O)Nc1ccc(Oc2cccnc2)nc1)NC(=O)c1ccc(Nc2nc(NC3(c4ccc(Cl)cc4)CC3)nc(OCC(F)(F)F)n2)cc1` [Compound 3699] as the compound, how does the EC50 read?
**A.** 0.01 to 10 nM

**Q.** `COc1ccc(NC(=O)C(=O)NCC(C)(C)CNC(=O)c2ccc(Nc3nc(NC4(c5ccc(Cl)cc5)CC4)nc(OCc4ccc(C(C)C)cc4)n3)cc2F)cc1` [Compound 3828] was tested. Which EC50 did it give?
**A.** 0.01 to 10 nM

**Q.** With `Cc1ccc(NC(=O)C(=O)NCC(C)(C)CNC(=O)c2ccc(Nc3nc(NC4(c5ccc(Cl)cc5)CC4)nc(OCc4ccccc4)n3)cc2)cc1` [Compound 3843] as the compound, how does the EC50 read?
**A.** 0.01 to 10 nM

**Q.** Which EC50 does the source give for `Cc1nc(-c2cccc(NC(=O)C(=O)NCC[C@H](NC(=O)c3ccc(Nc4nc(NC5(c6ccc(Cl)cc6)CC5)nc(OCC(F)(F)F)n4)cc3)C(=O)O)c2)no1` [Compound 3654] here?
**A.** 0.01 to 10 nM

**Q.** `COc1ccc(CN(CC(C)(O)CNC(=O)c2ccc(Nc3nc(NC4(c5ccc(Cl)cc5)CC4)nc(OCC(F)(F)F)n3)cc2)C(=O)C(=O)Nc2ccc(C)cc2)c(OC)c1` (centres unmarked) [Compound 3833] was tested. Which EC50 did it give?
**A.** 0.01 to 10 nM

**Q.** `COC(=O)[C@H](CNC(=O)C(=O)Nc1cccc(CN2CCCC2)c1)NC(=O)c1ccc(Nc2nc(NC3(c4ccc(Cl)cc4)CC3)nc(OCC(F)(F)F)n2)cc1` [Compound 3723] was tested. Which EC50 did it give?
**A.** 0.01 to 10 nM

Same assay, conditions: Hepatitis C virus, Huh-7, read-out: Activity (EC50 class), HCV pseudoparticles (genotype 1a, H77C) in Huh7 cells; EC50 expressed as class A/B

**Q.** For `CC(C)CNC(=O)C(=O)NC(C)(C)CNC(=O)c1ccc(Nc2nc(NC3(c4ccc(Cl)cc4)CC3)nc(OCC(F)(F)F)n2)cc1` [Compound 3442], which EC50 is on record?
**A.** 0.01 to 10 nM

**Q.** Which EC50 does the source give for `Cc1cc(NC(=O)C(=O)NCCNC(=O)c2ccc(Nc3nc(NC4(c5ccc(Cl)cc5)CC4)nc(OCC(F)(F)F)n3)cc2)no1` [Compound 3372] here?
**A.** 0.01 to 10 nM

**Q.** With `CCc1ccc(NC(=O)C(=O)NCC[C@H](NC(=O)c2ccc(Nc3nc(NC4(c5ccc(Cl)cc5)CC4)nc(OCC(F)(F)F)n3)cc2)C(=O)OC)cc1` [Compound 3330] as the compound, how does the EC50 read?
**A.** 0.01 to 10 nM

**Q.** Which EC50 does the source give for `O=C(NCCNC(=O)c1ccc(Nc2nc(NC3(c4ccc(Cl)cc4)CC3)nc(OCC(F)(F)F)n2)cc1)C(=O)NCc1ccc(F)cc1` [Compound 3370] here?
**A.** 0.01 to 10 nM

**Q.** How did the EC50 turn out when `O=C(Nc1nccs1)C(=O)N1CCCC(CNC(=O)c2ccc(Nc3nc(NC4(c5ccc(Cl)cc5)CC4)nc(OCC(F)(F)F)n3)cc2)C1` (centres unmarked) [Compound 3487] was run?
**A.** 0.01 to 10 nM

**Q.** How did the EC50 turn out when `O=C(NCC[C@H](NC(=O)c1ccc(Nc2nc(NC3(c4ccc(Cl)cc4)CC3)nc(OCC(F)(F)F)n2)cc1)C(=O)O)C(=O)Nc1ccc(Oc2ccncc2)cc1` [Compound 3544] was run?
**A.** 10 to 1000 nM

**Q.** How did the EC50 turn out when `CC(C)(CNC(=O)c1ccc(Nc2nc(NC3(c4ccc(Cl)cc4)CC3)nc(OCC(F)(F)F)n2)cc1)NC(=O)C(=O)NCc1ccc(F)cc1` [Compound 3419] was run?
**A.** 0.01 to 10 nM

**Q.** With `CC(C)(CNC(=O)C(=O)Nc1ccc2c(c1)COC2=O)CNC(=O)c1ccc(Nc2nc(NC3(c4ccc(Cl)cc4)CC3)nc(OCC(F)(F)F)n2)cc1` [Compound 3359] as the compound, how does the EC50 read?
**A.** 0.01 to 10 nM

**Q.** For `COC(=O)[C@H](CNC(=O)C(=O)Nc1ccc(Oc2ccncc2)cc1)NC(=O)c1ccc(Nc2nc(NC3(c4ccc(Cl)cc4)CC3)nc(OCC(F)(F)F)n2)cc1` [Compound 3206], which EC50 is on record?
**A.** 0.01 to 10 nM

**Q.** `COc1cccc(CNC(=O)C(=O)NCC(C)(C)CNC(=O)c2ccc(Nc3nc(NC4(c5ccc(Cl)cc5)CC4)nc(OCC(F)(F)F)n3)cc2)c1` [Compound 3012] was tested. Which EC50 did it give?
**A.** 0.01 to 10 nM

**Q.** For `O=C(NCc1ccc(F)cc1)C(=O)NCC(O)CNC(=O)c1ccc(Nc2nc(NC3(c4ccc(Cl)cc4)CC3)nc(OCC(F)(F)F)n2)cc1` (centres unmarked) [Compound 3368], which EC50 is on record?
**A.** 0.01 to 10 nM

**Q.** How did the EC50 turn out when `CC(C)(CNC(=O)c1ccc(Nc2nc(NC3(c4ccc(Cl)cc4)CC3)nc(OCC(F)(F)F)n2)cc1)NC(=O)C(=O)Nc1cccc(F)c1` [Compound 3421] was run?
**A.** 0.01 to 10 nM

**Q.** For `CCc1ccc(NC(=O)C(=O)NCC[C@H](NC(=O)c2ccc(Nc3nc(NC4(c5ccc(Cl)cc5)CC4)nc(OCC(F)(F)F)n3)cc2)C(=O)O)cc1` [Compound 3551], which EC50 is on record?
**A.** 0.01 to 10 nM

**Q.** `CC(CNC(=O)C(=O)Nc1ccccc1)CNC(=O)c1ccc(Nc2nc(NC3(c4ccc(Cl)cc4)CC3)nc(OCC(F)(F)F)n2)cc1` (centres unmarked) [Compound 3470] was tested. Which EC50 did it give?
**A.** 0.01 to 10 nM

**Q.** Which EC50 does the source give for `Cc1cc(NC(=O)C(=O)NCC(C)(C)CNC(=O)c2ccc(Nc3nc(NC4(c5ccc(Cl)cc5)CC4)nc(OCC(F)(F)F)n3)cc2)ccc1F` [Compound 3060] here?
**A.** 0.01 to 10 nM
